In article PMC9182007, “Statistical Methods in the Study of Protein Binding and Its Relationship to Drug Bioavailability in Breast Milk” (Molecules, 2022):
Read-outs that look alike come from different tables or passages of the source.

How the values were obtained:
[1] = Table S1, milk/plasma drug concentration ratio, in vivo; cited from earlier work
[2] = NP TLC on non-impregnated control plates; format: physicochemical; settings: Table S3, non-impregnated NP plate; acetonitrile/acetate buffer pH 7.4/methanol 60:20:20
[3] = Milk-to-plasma (M/P) drug concentration ratio obtained in vivo, from literature; parameters: species or system human; settings: Table S1, scale of drug penetration into milk 1-4
[4] = RP TLC on non-impregnated control plates; format: physicochemical; settings: Table S4, non-impregnated RP plate; acetonitrile/acetate buffer pH 7.4/methanol 60:20:20
[5] = molecular target: T1, human serum albumin (HSA) (Homo sapiens, UniProt P02768)
[6] = Table S1, coded 1/0; ref DrugBank [7]; cited from earlier work
[7] = molecular target: T2, bovine serum albumin (BSA) (Bos taurus, UniProt P02769); test: NP TLC on plates impregnated with bovine serum albumin; format: binding; settings: Table S3, NP plate impregnated with 2 mg/mL BSA; pH 7.4 mobile phase
T2 construct: purchased Sigma Aldrich

[8] = HPLC on immobilized artificial membrane column (HPLCIAM); format: physicochemical; settings: for log k IAM: Table S5, IAM column, pH 7.4; for k IAM: Table S5, retention factor, IAM column, phosphate buffer pH 7.4/acetonitrile 80:20
[9] = molecular target: T1, human serum albumin (HSA); test: in vitro; settings: immobilized hsa column, pH 7.4
plasma protein = settings: Table S1, plasma protein binding given as fraction; ref DrugBank [7]; cited from earlier work
[10] = molecular target: T2, bovine serum albumin (BSA); test: RP TLC on plates impregnated with bovine serum albumin; format: binding; settings: Table S4, RP plate impregnated with 2 mg/mL BSA; pH 7.4 mobile phase
[11] = Table S5, retention factor, HSA column, pH 7.4, 25 degrees Celsius
[12] = human, immobilized hsa column, pH 7.4

T2 sequence (P02769 25-607): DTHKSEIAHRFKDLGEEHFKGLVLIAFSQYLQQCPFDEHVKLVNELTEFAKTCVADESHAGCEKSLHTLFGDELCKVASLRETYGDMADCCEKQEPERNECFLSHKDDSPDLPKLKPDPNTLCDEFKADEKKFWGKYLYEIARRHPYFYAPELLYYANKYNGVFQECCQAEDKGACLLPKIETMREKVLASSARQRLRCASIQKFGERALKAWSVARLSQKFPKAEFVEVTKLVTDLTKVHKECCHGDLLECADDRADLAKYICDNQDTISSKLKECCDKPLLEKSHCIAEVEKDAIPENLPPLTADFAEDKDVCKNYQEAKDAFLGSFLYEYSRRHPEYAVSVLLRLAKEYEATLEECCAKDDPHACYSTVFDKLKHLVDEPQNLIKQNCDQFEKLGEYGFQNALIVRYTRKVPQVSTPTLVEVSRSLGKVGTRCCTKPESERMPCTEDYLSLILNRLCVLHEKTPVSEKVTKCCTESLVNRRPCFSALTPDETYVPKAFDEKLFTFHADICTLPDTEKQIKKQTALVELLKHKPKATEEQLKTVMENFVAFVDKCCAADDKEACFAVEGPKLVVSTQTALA
T1 sequence (P02768 25-609): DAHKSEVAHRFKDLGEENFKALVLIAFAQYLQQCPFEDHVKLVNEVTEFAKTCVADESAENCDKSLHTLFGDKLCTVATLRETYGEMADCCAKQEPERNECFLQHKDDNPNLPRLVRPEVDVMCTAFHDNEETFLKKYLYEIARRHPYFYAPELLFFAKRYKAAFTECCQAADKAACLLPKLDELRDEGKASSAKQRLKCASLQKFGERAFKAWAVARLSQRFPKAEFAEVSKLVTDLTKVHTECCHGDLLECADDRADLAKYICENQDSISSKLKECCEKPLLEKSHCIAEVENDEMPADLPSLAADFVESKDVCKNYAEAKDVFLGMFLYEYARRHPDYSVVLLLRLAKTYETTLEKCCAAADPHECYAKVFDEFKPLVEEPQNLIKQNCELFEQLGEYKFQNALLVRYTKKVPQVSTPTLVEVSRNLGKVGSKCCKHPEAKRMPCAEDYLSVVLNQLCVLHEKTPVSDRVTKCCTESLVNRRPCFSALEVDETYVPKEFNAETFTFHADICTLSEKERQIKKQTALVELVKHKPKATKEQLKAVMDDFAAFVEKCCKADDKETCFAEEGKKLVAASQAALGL

| SMILES | M/P [1] | CNP (Rf, control NP plate) [2] | M/P code [3] | CRP (Rf, control RP plate) [4] | k HSA [5, 11] | CNS+/- [6] | NP (Rf, BSA-impregnated NP plate) [7] | log k IAM [8] | k IAM [8] | chromatographic logD [9] | PB (plasma protein) | RP (Rf, BSA-impregnated RP plate) [10] | log k HSA ([5]; Table S5, HSA, pH 7.4) | log k HSA [5, 12] | k HSA ([5]; pH 7.4) |
| --- | --- | --- | --- | --- | --- | --- | --- | --- | --- | --- | --- | --- | --- | --- | --- |
| CC(=O)Oc1ccccc1C(=O)O [acetylsalicylic acid] | 1.08 | 0.89 | 3 (3 range 0.81–1.20—possibly over the safety limit) | 0.98 | 0.31 | 1 | 0.90 | -1.52 | 0.03 | -0.51 | 0.995 | 0.99 | – | – | – |
| CC1(C)S[C@@H]2[C@H](NC(=O)[C@H](N)c3ccc(O)cc3)C(=O)N2[C@H]1C(=O)O [amoxilcillin] | 0.028 | 0.68 | 1 (Code 1 corresponds to drugs with an M/P value <0.40—completely safe) | 0.99 | 0.94 | 0 | 0.68 | -1.32 | 0.05 | – | 0.2 | 0.98 | -0.03 | – | – |
| CC(C)NCC(O)COc1ccc(CCOCC2CC2)cc1 (stereo not drawn) [betaxolol] | 2.75 | 0.66 | 4 (4 is M/P >1.20—dangerous) | 0.27 | 1.59 | 0 | 0.65 | – | – | – | 0.5 | 0.25 | – | 0.20 | – |
| Cc1ccc(-c2cc(C(F)(F)F)nn2-c2ccc(S(N)(=O)=O)cc2)cc1 [celecoxib] | 0.41 | 0.98 | 2 (2 corresponds to the range of 0.40–0.80—at the safety limit) | 0.75 | 13.42 | 1 | 0.99 | 1.70 | 50.01 | – | 0.97 | 0.75 | 1.13 | – | – |
| COc1cc(N)c(Cl)cc1C(=O)NC1CCN(CCCOc2ccc(F)cc2)CC1OC (stereo not drawn) [cisapride] | 0.045 | 0.64 | 1 (Code 1 corresponds to drugs with an M/P value <0.40—completely safe) | 0.65 | 4.88 | 1 | 0.63 | 1.76 | 57.99 | – | 0.975 | 0.62 | – | 0.69 | – |
| CC[C@H]1OC(=O)[C@H](C)[C@@H](O[C@H]2C[C@@](C)(OC)[C@@H](O)[C@H](C)O2)[C@H](C)[C@@H](O[C@@H]2O[C@H](C)C[C@H](N(C)C)[C@H]2O)[C@](C)(OC)C[C@@H](C)C(=O)[C@H](C)[C@@H](O)[C@]1(C)O [clarithromycin] | 0.25 | 0.99 | 1 (Code 1 corresponds to drugs with an M/P value <0.40—completely safe) | 0.83 | 0.82 | 0 | 0.99 | -1.02 | 0.10 | – | – | 0.78 | -0.09 | – | – |
| O=C(O)C1N=C(c2ccccc2)c2cc(Cl)ccc2NC1=O (stereo not drawn) [clorazepate] | 0.2 | 0.94 | 1 (Code 1 corresponds to drugs with an M/P value <0.40—completely safe) | 0.81 | – | – | 0.94 | 0.69 | 4.88 | 0.6 | 0.975 | 0.81 | – | – | 3.99 |
| Fc1ccc([C@@H]2CCNC[C@H]2COc2ccc3c(c2)OCO3)cc1 [paroxetine] | 0.675 | 0.55 | 2 (2 corresponds to the range of 0.40–0.80—at the safety limit) | 0.60 | 5.96 | 1 | 0.56 | 2.06 | 115.77 | – | 0.94 | 0.67 | 0.78 | – | – |
| CN1C(C(=O)Nc2ccccn2)=C(O)c2ccccc2S1(=O)=O [piroxicam] | 0.02 | 0.98 | 1 (Code 1 corresponds to drugs with an M/P value <0.40—completely safe) | 0.58 | 32.92 | 0 | 0.98 | -0.79 | 0.16 | 1.52 | – | 0.60 | – | – | – |
| CCOC(=O)[C@H](CCc1ccccc1)N[C@@H](C)C(=O)N1Cc2ccccc2C[C@H]1C(=O)O [quinapril] | 0.12 | 0.44 | 1 (Code 1 corresponds to drugs with an M/P value <0.40—completely safe) | 0.57 | 3.1 | 0 | 0.44 | 0.09 | 1.22 | – | 0.97 | 0.56 | – | 0.49 | – |
| CN[C@H]1CC[C@@H](c2ccc(Cl)c(Cl)c2)c2ccccc21 [sertraline] | 1.85 | 0.53 | 4 (4 is M/P >1.20—dangerous) | 0.49 | 13.19 | – | 0.53 | 1.63 | 42.89 | – | 0.98 | 0.48 | – | 1.12 | – |
| CN1CCN(C(=O)OC2c3nccnc3C(=O)N2c2ccc(Cl)cn2)CC1 (stereo not drawn) [zopiclone] | 0.51 | 0.96 | 2 (2 corresponds to the range of 0.40–0.80—at the safety limit) | 0.84 | – | – | 0.96 | -0.04 | 0.91 | -0.12 | 0.45 | 0.83 | – | – | 0.76 |
| OCCN1CCN(CC/C=C2/c3ccccc3Sc3ccc(Cl)cc32)CC1 [zuclopenthixol] | 0.37 | 0.47 | 1 (Code 1 corresponds to drugs with an M/P value <0.40—completely safe) | – | 16.18 | 1 | 0.47 | 1.69 | 48.73 | 1.21 | 0.985 | – | – | – | – |
